Results as given in the NIST ThermoML archive (doi:10.1016/j.jct.2015.05.028).

Test: mn = molality of the nth substance listed, in mol/kg
Conditions: 99.6 kPa, Liquid, Vibrating tube method

CCN1C(=O)N(CC)C2NC(=O)NC21 (stereo not given) + O
mass density [kg/m3]
Conditions | 278.15 K | 288.15 K | 298.15 K | 308.15 K | 318.15 K
m1 = 0.01158 | 1000.48 | 999.594 | 997.533 | 994.508 | 990.681
m1 = 0.01315 | 1000.54 | 999.667 | 997.589 | 994.565 | 990.747
m1 = 0.01794 | 1000.76 | 999.871 | 997.801 | 994.774 | 990.935
m1 = 0.02385 | 1001.02 | 1000.12 | 998.052 | 995.029 | 991.185
m1 = 0.02832 | 1001.21 | 1000.32 | 998.231 | 995.196 | 991.363
m1 = 0.03477 | 1001.5 | 1000.6 | 998.521 | 995.477 | 991.629
m1 = 0.04062 | 1001.76 | 1000.85 | 998.752 | 995.71 | 991.866
m1 = 0.04476 | 1001.95 | 1001.03 | 998.934 | 995.885 | 992.035
m1 = 0.04841 | 1002.11 | 1001.18 | 999.081 | 996.03 | 992.176
m1 = 0.0537 | 1002.35 | 1001.42 | 999.318 | 996.256 | 992.398
m1 = 0.05905 | 1002.58 | 1001.63 | 999.528 | 996.468 | 992.605
m1 = 0.06432 | 1002.81 | 1001.87 | 999.742 | 996.678 | 992.818
m1 = 0.06647 | 1002.9 | 1001.96 | 999.836 | 996.759 | 992.893
m1 = 0.06907 | 1003.01 | 1002.07 | 999.94 | 996.876 | 993.011
